Assay results: ChEMBL document CHEMBL3784927, “Serum azathioprine and 6-mercaptopurine levels and immunosuppressive activity after azathioprine in uremic patients” (Int J Immunopharmacol, 1986)

How the values were obtained:
[1] = Terminal phase half life in uremic patient (15 patients) at 100 mg, iv by gas chromatography-mass spectrometry with multiple detection method; conditions: human, in vivo
[2] = Half life in human with good renal function; conditions: in vivo
[3] = Primary phase half life in uremic patient (13 patients) at 100 mg, iv by gas chromatography-mass spectrometry with multiple detection method; conditions: human, in vivo
[4] = Total clearance in uremic patient (15 patients) at 100 mg, iv by gas chromatography-mass spectrometry with multiple detection method; conditions: human, in vivo
[5] = Volume of distribution in uremic patient (15 patients) at 100 mg, iv by gas chromatography-mass spectrometry with multiple detection method; conditions: human, in vivo
[6] = Cmax in uremic patient (15 patients) at 100 mg, iv by gas chromatography-mass spectrometry with multiple detection method; conditions: human, in vivo
[7] = Tmax in uremic patient (8 patients) at 100 mg, po by gas chromatography-mass spectrometry with multiple detection method; conditions: human, in vivo
[8] = Clearance in kidney transplant patient; conditions: human, in vivo
[9] = AUC (0 to infinity) in uremic patient (7 patients) at 100 mg, po by gas chromatography-mass spectrometry with multiple detection method; conditions: human, in vivo
[10] = Tmax in uremic patient (15 patients) at 100 mg, iv by gas chromatography-mass spectrometry with multiple detection method; conditions: human, in vivo
[11] = Cmax in uremic patient (8 patients) at 100 mg, po by gas chromatography-mass spectrometry with multiple detection method; conditions: human, in vivo
[12] = AUC (0 to infinity) in uremic patient (15 patients) at 100 mg, iv by gas chromatography-mass spectrometry with multiple detection method; conditions: human, in vivo

Compound: Cn1cnc([N+](=O)[O-])c1Sc1ncnc2nc[nH]c12 [AZATHIOPRINE]
- half-life [1]: 49.5 min
- half-life [2]: 10 min
- half-life [3]: 6.05 min
- clearance [4]: 6920 mL/min
- Vd [5]: 438 L
- Cmax [6]: 3140 nM
- Tmax [7]: 15 min
- clearance [8]: 57 mL/min/kg
- AUC(0-inf) [9]: 0.164 µM·h
- Tmax [10]: 5 min
- Cmax [11]: 180 nM
- AUC(0-inf) [12]: 1.04 µM·h
